Measured values taken from patent US20060235013A1, “Tricyclic azole derivatives” (priority 2005, published 2006).

Assays:
[1] = target: T1, Aurora A kinase (Homo sapiens, UniProt O14965); experiment: IC50 determination for inhibitors of Aurora A (ELISA-type kinase assay, GST-Histone H3 substrate); format: biochemical; conditions: mutant Aurora A kinase, 30 μM ATP, 40 minutes, read-out: IC50 Aurora A kinase inhibition
T1 sequence (O14965 1-403): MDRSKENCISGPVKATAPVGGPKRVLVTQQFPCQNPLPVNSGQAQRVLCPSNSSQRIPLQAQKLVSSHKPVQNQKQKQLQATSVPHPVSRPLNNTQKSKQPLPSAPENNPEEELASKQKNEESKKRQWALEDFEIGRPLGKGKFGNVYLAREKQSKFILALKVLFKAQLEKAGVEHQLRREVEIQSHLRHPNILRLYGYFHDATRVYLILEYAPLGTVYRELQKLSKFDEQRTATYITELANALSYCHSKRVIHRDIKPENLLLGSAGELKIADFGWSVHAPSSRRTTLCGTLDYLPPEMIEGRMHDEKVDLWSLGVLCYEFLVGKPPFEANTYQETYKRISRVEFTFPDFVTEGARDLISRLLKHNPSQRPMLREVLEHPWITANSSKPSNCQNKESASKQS
Protocol: IC50 Determination for Inhibitors of Aurora A
Aurora A is a serine threonine kinase involved in spindle assembly and chromosome segregation.
The assay is a typically ELISA-type assay where substrate (GST-Histone H3) is coupled to the assay-plate and is phosphorylated by the kinase. Phosphorylation is detected by a mouse anti-Phosphopeptid mAb and an HRP-labeled anti-mouse pAb. The assay is validated for IC50-determination.
Kinase activities were measured by Enzyme-Linked Immunosorbent Assay (ELISA): Maxisorp 384-well plates (Nunc) were coated with recombinant fusion protein comprising residues 1-15 of HistoneH3 fused to the N-terminus of Glutathione-S-Transferase. Plates were then blocked with a solution of 1 mg/mL I-block (a highly purified form of casein, Tropix cat. no. T2015) in phosphate-buffered saline. Kinase reactions were carried out in the wells of the ELISA plate by combining an appropriate amount of mutant Aurora A kinase with test compound and 30 μM ATP. The reaction buffer was 10× Kinase Buffer (Cell Signaling cat. no. 9802) supplemented with 1 μg/mL I-block. Reactions were stopped after 40 minutes by addition of 25 mM EDTA. After washing, substrate phosphorylation was detected by addition of anti-phospho-Histone H3 (Ser 10) 6G3 mAb (Cell Signaling cat. no. 9706) and sheep anti-mouse pAb-HRP (Amersham cat. no. NA931V), followed by colorimetric development with TMB (3,3′,5,5′-tetramethylbenzidine from Kirkegaard & Perry Laboratories). After readout of the adsorbance, IC50 values were calculated using a non-linear curve fit (XLfit software (ID Business Solution Ltd., Guilford, Surrey, UK)).

[2] = tested on: HCT 116 cells; experiment: Viability assay in HCT 116 cells (CellTiter-Glo Luminescent Cell Viability Assay); format: cell-based; conditions: HCT 116 human colon carcinoma cells, 5 days (120 h) incubation, ATP luminescence
Protocol: Viability Assay in HCT 116 Cells
A viability assay was performed using the CellTiter-Glo® Luminescent Cell Viability Assay (see Promega Corporation's Technical Bulletin No. 288, pp. 1-11 [revised February 2004] which is hereby incorporated by reference in its entirety). This assay is a homogeneous method of determining the number of viable cells in culture based on quantitation of the ATP present, an indicator of metabolically active cells. The assay is designed for use with multiwell formats, making it ideal for automated high-throughput screening (HTS), cell proliferation and cytotoxicity assays. The homogenous assay procedure involves adding a single reagent (containing luciferase, luciferan substrate, and buffer) directly to cells cultured in serum-supplemented medium. Cell washing, removal of medium and multiple pipetting steps are not required. The system detects as few as 15 cells/well in a 384-well format in 10 minutes after adding reagent and mixing.
The homogeneous “add-mix-measure” format results in cell lysis and generation of a luminescent signal proportional to the amount of ATP present. The amount of ATP is directly proportional to the number of cells present in culture. The above-referenced assay generates a “glow-type” luminescent signal, produced by the luciferase reaction, which has a half-life generally greater than five hours, depending on cell type and medium used. The extended half-life eliminates the need to use reagent injectors and provides flexibility for continuous or batch mode processing of multiple plates. The unique homogeneous format avoids errors that may be introduced by other ATP measurement methods that require multiple steps.
HCT 116 cells (human colon carcinoma, ATCC-No. CCl-247) were cultivated in RPMI 1640 medium with GlutaMAX™ I (cell culture media that contains L-Alanyl-L-Glutamine [a stabilized a form/source of L-Glutamine] from Invitrogen, Cat-No. 61870-010), 2.5% Fetal Calf Serum (FCS, Sigma Cat-No. F4135 (FBS)); 100 Units/ml penicillin/100 μg/ml streptomycin (=Pen/Strep from Invitrogen Cat. No. 15140). For the assay the cells were seeded in 384 well plates, 1000 cells per well, in the same medium. The next day the test compounds were added in various concentrations ranging from 30 μM to 0.0015 μM (10 concentrations, 1:3 diluted). After 5 days the viability assay was done according to the instructions of the manufacturer. In brief: the cell-plate was equilibrated to room temperature for approximately 30 minutes and then reagent (containing luciferase, luciferan substrate, and buffer) was added. The contents were carefully mixed for 15 minutes to induce cell lysis. After 45 minutes the luminescent signal was measured in Victor 2, (scanning multiwell spectrophotometer, Wallac).
Medium: RPMI 1640 with cell culture media containing L-Alanyl-L-Glutamine [GlutaMAX™ I (Invitrogen, Cat-No. 61870)], 5% FCS (Sigma Cat.-No. F4135), Pen/Strep (Invitrogen, Cat No. 15140).
HCT116 (ATCC-No. CCl-247): 1000 cells in 60 μl per well of 384 well plate (Greiner 781098, μClear-plate white)
After seeding incubate plates 24 h at 37° C., 5% CO2
2nd. Day: Induction (Treatment with Compounds, 10 Concentrations):
In order to achieve a final concentration of 30 μM as highest concentration 3.5 μl of 10 mM compound stock solution were added directly to 163 μl media. Then step (d) of the dilution procedure described below, was followed.
In order to achieve the second highest to the lowest concentrations, a serial dilution with dilution steps of 1:3 was followed according to the procedure (a-d) as described here below:
(a) for the second highest concentration add 10 μl of 10 mM stock solution of compound to 20 μl dimethylsulfoxide (DMSO)
(b) dilute 8×1:3 (always 10 μl to 20 μl DMSO) in this DMSO dilution row (results in 9 wells with concentrations from 3333.3 μM to 0.51 μM)
(c) dilute each concentration 1: 47.6 (3.5 μl compound dilution to 163 μl media)
(d) add 10 μl of every concentration to 60 μl media in the cell plate […]

IC50 [1]	IC50 [2]	Compound
16 nM	100 to 2000 nM	CCN1C(=O)C(C)(C)c2cc3nc(-c4n[nH]c5c4COCC5)[nH]c3cc21 [Example 11, 5-Ethyl-7,7-dimethyl-2-(1,4,6,7-tetrahydro-pyrano[4,3-c]pyrazol-3-yl)-5,7-dihydro-3H-imidazo[4,5-f]indol-6-one]
55 nM	100 to 2000 nM	CCN1C(=O)C(C)(C)c2cc3nc(-c4n[nH]c5c4CN(C(=O)c4ccc(F)cc4)CC5)[nH]c3cc21 [Example 16, 5-Ethyl-2-[5-(4-fluoro-benzoyl)-4,5,6,7-tetrahydro-1H-pyrazolo[4,3-c]pyridin-3-yl]-7,7-dimethyl-5,7-dihydro-3H-imidazo[4,5-f]indol-6-one]
14 nM	100 to 2000 nM	CCN1C(=O)C(C)(C)c2cc3nc(-c4n[nH]c5c4CN(S(=O)(=O)c4ccc(F)cc4)CC5)[nH]c3cc21 [Example 17, 5-Ethyl-2-[5-(4-fluoro-benzenesulfonyl)-4,5,6,7-tetrahydro-1H-pyrazolo[4,3-c]pyridin-3-yl]-7,7-dimethyl-5,7-dihydro-3H-imidazo[4,5-f]indol-6-one]
